Source: patent US4963565A, “In vivo treatment of mycobacterial infections with 6-cyclo octylamino-5,8-quinoline quinone” (priority 1986, dated 1990)

Columns and labels:
[1] = Acute toxicity in C57Bl/6 mice; format: in vivo; settings: mouse, in vivo, ip; C57Bl/6 mice, intraperitoneal
Description: (§1) Studies were performed to obtain toxicity data. […] Extrapolating, this corresponds to an LD50 of approximately 40 gr for a 70 kg subject. For chronic toxicity studies both C57Bl/6 and Beige mice were administered doses of 40 mg/kg/day, and intraperitoneal doses over 30 mg/kg for more than 60 days.

C57Bl/6 mice = test: Acute toxicity in C57Bl/6 mice; format: in vivo; settings: 70 kg subject, extrapolated from mouse LD50
Description: as §1

M. tuberculosis H37 Rv [2] = test: In vitro activity against growing culture of M. tuberculosis in Middlebrook 7H9 broth; settings: 2 mcg/ml, FIG. 7
lymphocytes = test: Effect on chromosomal structures in lymphocytes; format: cell-based, human; settings: 0.5 ml of 10 mcg/ml solution
Description: In order to determine the effect of CQQ on chromosomes, blood was collected from a healthy volunteer, and lymphocytes were isolated from the sample. These were cultivated in a folate deficient medium, and after approximately 24 hours of cultivation, 0.5 ml of a solution of CQQ (10 mcg/ml) was added to the culture. Incubation at 37° C. for 72 hours followed. The lymphocytes were then harvested, following routine laboratory porocedures and were stained with Giemsa stain.

macrophages = test: Cytotoxicity to macrophages (Table 3 footnote); format: cell-based, human; settings: Sample I; 200 NG/ML (cell printed *)
From the text: Blood from a healthy volunteer was drawn and monocytes were removed and cultured to the macrophage stage. This required about 7 days. The macrophages were then exposed to M. leprae bacilli obtained from biopsy specimens of leprosy patients. One sample was exposed to CQQ, while other samples were exposed to DDS (diaminodiphenyl sulphone), the standard antileprosy drug, or rifampin, at various concentrations. Macrophages were exposed to radiolabelled tritium (^3 H) labeled thymidine, and its uptake was measured using a liquid scintillation counter. A control model of M. leprae exposed macrophages, which was not treated was used as well. The uptake of thymidine is a measure of antimycobacterial activity.

M. intracellulare [3] = test: In vivo chemotherapeutic activity against M. intracellulare in the Beige mouse model (Example II); parameters: species or system M. intracellulare (host: Beige mice); settings: 10 mg/kg daily orally; 1, 2 and 4 weeks (P 0.05), FIG. 2
blood clotting = test: Effect on blood clotting; format: in vivo; settings: oral, intraperitoneal and intramuscular, varying amounts, FIG. 8
Description: Due to its relationship to Vitamin K, there was some concern as to the effect CQQ would have on blood clotting. Varying amounts of CQQ were administered orally, intraperitoneally, and intramuscularly.

M. tuberculosis = settings: Gangadharam et al.; cited from earlier work
M. intracellulare 571-8 = test: In vivo effectiveness against chronic M. intracellulare infections in C57Bl/6 mice (Examples IV and V); parameters: species or system M. intracellulare (host: C57Bl/6 mice)
M. tuberculosis H37 Rv [4] = test: In vivo activity against M. tuberculosis infections in C57Bl/6 mice (Example VII); parameters: species or system M. tuberculosis (host: C57Bl/6 mice)
Description: Animal studies were performed using the mouse model. Mice are accepted as excellent experimental models for human mycobacterial diseases. While earlier literature (see review by Youmans etc.), have established C57Bl/6 mice models for in vivo studies with M. tuberculosis, mouse models for experimental M. intracellulare infections were difficult until recently (see review by Gangadharam). The Beige mouse (C57Bl/6/bg/bg) model established by Gangadharam et al is now used for studies with M. intracellulare. In the in vivo studies described below, C57Bl/6 and Beige mice models are used for M. tuberculosis and M. intracellulare infections, respectively.
In chemotherapy studies, various concentrations of CQQ and ansamycin (LM 427), were used. Lung and spleen tissue samples from the animal models were used. "CFU" refers to the "colony forming units" observed when culturing these samples.
In all of the following experiments, spleens and lungs were removed aseptically from the subject animals, at different periods of challenge. The organs were ground and samples of the ground organs were plated in aliquots on 7H11 agar medium. If the bacteria were present, they would grow, forming CFUs. The plates were incubated at 37° C. (with 5% CO2 for M. tuberculosis), and read after three weeks incubation.
CFUs were counted by visual enumeration. If increased magnification was necessary, this was done using a plate microscope.
In this experiment C57Bl/6 mice were infected intravenously with M. tuberculosis H37 Rv strain and one group was treated daily orally with 10 mg/kg of CQQ and the others as untreated infected control.

C57Bl/6 and Beige mice = test: Chronic toxicity in C57Bl/6 and Beige mice; format: in vivo; settings: 40 mg/kg/day, and intraperitoneal doses over 30 mg/kg, more than 60 days
Description: as §1

M. intracellulare [5] = settings: Gangadharam et al.; cited from earlier work
[6] = tested on: Mycobacterium intracellulare strain 571-8; test: In vivo chemotherapeutic activity against M. intracellulare, acute model in Beige mice (Example 1); parameters: species or system M. intracellulare (host: Beige mice, C57Bl/6/bg/bg); settings: FIG. 1

## O=C1C(NC2CCCCCCC2)=CC(=O)c2ncccc21 [CQQ, 6-cyclo octylamino-5,8-quinoline quinone]
[1]
  LD50: 564 mg/kg
C57Bl/6 mice
  LD50 extrapolated to a 70 kg subject: approximately 40 gr
M. tuberculosis H37 Rv [2]
  Inhibitory activity against tubercle bacilli: remarkable inhibitory activity
lymphocytes; 72 hours
  Assessment of chromosomal breaks: fully within the normal limits
lymphocytes; 72 hours at 37° C., at least 50 cells counted
  Total number of chromosomal breaks: 7
lymphocytes; 72 hours at 37° C., of at least 50 cells counted
  Cells with chromosomal breaks: 5
macrophages
  Cytotoxic to macrophages: CYTOTOXIC TO MACROPHAGES
M. intracellulare [3]
  Antimycobacterial activity, CFU counts from spleen and lungs vs controls: considerable antimycobactgerial activity with statistically significant differences
Blood clotting
  Blood clotting time: little change in blood clotting time
M. tuberculosis
  In vitro effectiveness against M. tuberculosis: effective against M. intracellulare and M. tuberculosis in vitro
M. intracellulare 571-8; Example IV, 10 mg/kg (P 0.05)
  Duration of statistically significant difference vs control: up to 3 weeks
M. intracellulare 571-8; Example IV, 10 mg/kg, followed for 28 days, FIG. 5
  Reduction in CFU counts in spleen and lungs vs untreated control: considerable reduction in CFU counts both in spleen and lungs
M. intracellulare 571-8; Example V, FIG. 6
  In vivo antimycobacterial activity in the chronic infection: considerable in vivo antimycobacterial activity
M. tuberculosis H37 Rv [4]; 10 mg/kg daily orally, end of 4 weeks
  Mean CFU counts from spleens and lungs vs untreated controls: considerable reduction
M. tuberculosis H37 Rv [4]; 10 mg/kg daily orally, end of 4 weeks, control 6.42
  Mean colony forming unit (CFU) count, lung: 4.21 LOG CFU
M. tuberculosis H37 Rv [4]; 10 mg/kg daily orally, end of 4 weeks, control 6.90
  Mean colony forming unit (CFU) count, spleen: 4.90 LOG CFU
M. tuberculosis H37 Rv [4]; conclusion from Table 2
  Antituberculosis effectiveness: clearly an effective antituberculosis agent
C57Bl/6 and Beige mice
  Visible toxic manifestation or death: No visible toxic manifestation or death
M. intracellulare [5]
  In vitro effectiveness against M. intracellulare: effective against M. intracellulare and M. tuberculosis in vitro
[6]; 10 mg/kg orally daily, each time point (P 0.05)
  Activity vs infected untreated control: considerable activity with a statistically significant difference
[6]; both 10 mg/kg orally daily
  Activity compared with ansamycin: better than that of ansamycin
